# Data from PubChem BioAssay AID206 (DTP/NCI, 2004).
# Values joined by “and” are separate entries in the source; they are usually repeats but may differ in a detail not shown here. Equal values may be shown once. Inconclusive results are not listed.
# Tested on: nude mice, HT29 intrarenal xenograft, tumor weight T/C
# Assay: NCI In Vivo Anticancer Drug Screen. Data for tumor model HT29;CX-1 Human Adenocarcinoma (MER+) (intrarenal inoculation) in NU/NU Swiss (nude) mice
# Details: endpoint: mean tumor weight change, higher = larger tumour
# In short: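 Endpoint measured as tumor size or survival; ratio reported is treated group over vehicle controls.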
# [1] = dose: 50.0 mg/kg/injection, schedule: Q01DX010 (sc), vehicle: saline
# [2] = dose: 100.0 mg/kg/injection, schedule: Q01DX010 (sc), vehicle: saline
smiles,measurement,setting,value
C=CCOCC1CO1 (stereo unspecified),T/C,"dose: 75.0 mg/kg/injection, schedule: Q04DX004 (sc), vehicle: saline",120 % of control
same,T/C,"dose: 150.0 mg/kg/injection, schedule: Q04DX004 (sc), vehicle: saline",100 % of control
same,T/C,"dose: 300.0 mg/kg/injection, schedule: Q04DX004 (sc), vehicle: saline",54 % of control
CN(C)c1ccc(C(=C2C=CC(=[N+](C)C)C=C2)c2ccc(N(C)C)cc2)cc1 (tested in a mixture with another compound),T/C,"dose: 1.25 mg/kg/injection, schedule: Q01DX010 (sc), vehicle: saline with Tween-80",86 % of control
same,T/C,"dose: 2.5 mg/kg/injection, schedule: Q01DX010 (sc), vehicle: saline with Tween-80",111 % of control
same,T/C,"dose: 5.0 mg/kg/injection, schedule: Q01DX010 (sc), vehicle: saline with Tween-80",100 % of control
same,T/C,"dose: 10.0 mg/kg/injection, schedule: Q01DX010 (sc), vehicle: saline with Tween-80",60 % of control
CN1N=C(N)c2cn(C3OC(COP(=O)(O)O)C(O)C3O)c3ncnc1c23 (stereo unspecified),T/C,"dose: 25.0 mg/kg/injection, schedule: Q01DX010 (sc), vehicle: water",156 % of control
same,T/C,"dose: 50.0 mg/kg/injection, schedule: Q01DX010 (sc), vehicle: water",182 % of control
C[Si](C)(C)O/C=C1/CCOC1=O,T/C,"dose: 100.0 mg/kg/injection, schedule: Q04DX004 (sc), vehicle: suspension in saline",98 % of control
same,T/C,"dose: 200.0 mg/kg/injection, schedule: Q04DX004 (sc), vehicle: suspension in saline",93 % of control
same,T/C,"dose: 800.0 mg/kg/injection, schedule: Q04DX004 (sc), vehicle: suspension in saline",107 % of control
NC(=O)/C=C/c1c[nH]c2nccnc12,T/C,"dose: 25.0 mg/kg/injection, schedule: Q04DX004 (sc), vehicle: water",114 % of control
same,T/C,"dose: 50.0 mg/kg/injection, schedule: Q04DX004 (sc), vehicle: water",64 % of control
same,T/C,"dose: 100.0 mg/kg/injection, schedule: Q04DX004 (sc), vehicle: water",86 % of control
same,T/C,"dose: 200.0 mg/kg/injection, schedule: Q04DX004 (sc), vehicle: water",102 % of control
Clc1ccc(CN2COc3c(ccc4cccnc34)C2)cc1Cl,T/C,"dose: 100.0 mg/kg/injection, schedule: Q01DX010 (sc), vehicle: saline with Tween-80",73 % of control
same,T/C,"dose: 400.0 mg/kg/injection, schedule: Q01DX010 (sc), vehicle: saline with Tween-80",60 % of control and 72 % of control
CC1CN1P1(N2CC2C)=NP(N2CC2C)(N2CC2C)=NP(N2CC2C)(N2CC2C)=N1 (stereo unspecified),T/C,[1],79 % of control
same,T/C,[2],101 % of control
OCC1OC(n2cnc3c(=S)nc[nH]c32)C(O)C1O (stereo unspecified),T/C,"dose: 25.0 mg/kg/injection, schedule: Q01DX010 (sc), vehicle: saline",54 % of control
same,T/C,[1],77 % of control
same,T/C,[2],108 % of control
CC(C)[NH-].CC(C)[NH-].[Cl][Pt+2][Cl],T/C,"dose: 37.5 mg/kg/injection, schedule: Q04DX004 (sc), vehicle: dextrose",58 % of control
same,T/C,"dose: 75.0 mg/kg/injection, schedule: Q04DX004 (sc), vehicle: dextrose",43 % of control
same,T/C,"dose: 150.0 mg/kg/injection, schedule: Q04DX004 (sc), vehicle: dextrose",21 % of control
COC1=C(OC)C(=O)C(SC/C=C(\C)CCCC(C)CCCC(C)CCCC(C)C)=CC1=O (stereo unspecified),T/C,"dose: 100.0 mg/kg/injection, schedule: Q04DX004 (sc), vehicle: saline with Tween-80",11 % of control
same,T/C,"dose: 200.0 mg/kg/injection, schedule: Q04DX004 (sc), vehicle: saline with Tween-80",36 % of control
same,T/C,"dose: 300.0 mg/kg/injection, schedule: Q04DX004 (sc), vehicle: saline with Tween-80",59 % of control
same,T/C,"dose: 400.0 mg/kg/injection, schedule: Q04DX004 (sc), vehicle: saline with Tween-80",18 % of control
same,T/C,"dose: 600.0 mg/kg/injection, schedule: Q04DX004 (sc), vehicle: saline with Tween-80",26 % of control
same,T/C,"dose: 800.0 mg/kg/injection, schedule: Q04DX004 (sc), vehicle: saline with Tween-80",12 % of control
same,T/C,"dose: 1200.0 mg/kg/injection, schedule: Q04DX004 (sc), vehicle: saline with Tween-80",39 % of control
same,T/C,"dose: 2400.0 mg/kg/injection, schedule: Q04DX004 (sc), vehicle: saline with Tween-80",55 % of control
Cc1cc(NS(=O)(=O)c2ccc(N=Nc3cc(N=Nc4ccc(S(=O)(=O)Nc5cc(C)nc(C)n5)cc4)c4c(NC(=O)C(Cl)Cl)cccc4c3OC(=O)C(Cl)Cl)cc2)nc(C)n1 (tested in a mixture with another compound),T/C,"dose: 150.0 mg/kg/injection, schedule: Q04DX004 (sc), vehicle: suspension in saline",204 % of control
same,T/C,"dose: 1200.0 mg/kg/injection, schedule: Q04DX004 (sc), vehicle: suspension in saline",72 % of control
